Results taken from US20110281852A1 (priority 2010, published 2011).

What was measured:
3T3-L1 cells = assay: Quantitative Oil Red O staining, 3T3-L1 adipocyte differentiation (Example 1); assay type: cell-based, mouse; details: for reduction in fat droplets: 6 days post differentiation induction
Method: Oil-Red-O Staining: Oil-Red-O Staining was performed as previously described (Liu et al. 2004). Images were obtained using an Olympus IX70 inverted microscope (Tokyo, Japan). Quantification Oil-Red-O Staining of cells was carried out as described (Furuyashiki et al., Biosci Biotechnol Biochem (2004) 68:[…]).
Standard Oil Red O staining was then used to examine the extent of differentiation process at days 2, 4, 6, and 8 using microscopy. […] (FIG. 4).

GATA-2 [1] = assay: Immunoblot, GATA-2 protein in 3T3-L1 cells; assay type: cell-based, mouse; details: DM + 1, 2, 4, 8 μM, 8 days, p<0.05
Method: Immunoblot Analysis: GATA-2 and GATA-3 protein expression were assessed by Western blot. […] The cells were washed twice with PBS, lysed in a lysis buffer (HEPES-Tx-PI buffer: 10 mM HEPES, 5 mM EDTA, 350 mM Sucrose, 1 ug/ml leupeptin, 1 ug/ml pepstatin, 1% Triton-X, 1 mM PMSF, diluted in water), processed with a 25G needle and centrifuged at 10,000 rpm for 5 min. Protein concentration was determined using the […] according to the Pierce Protein Assay Protocol. Total protein (50 μg) was used for GATA-2 and GATA-3 analysis and was separated by electrophoresis using BioRad Electrophoretic System (60 V for 1 hour followed by 90 V for 5 hours). The protein was then transferred to nitrocellulose membranes at 35 V overnight. The membrane was blocked for 1 hour at room temperature in 5% nonfat milk in Tris-buffered saline (TBS), then washed with Tween-20-TBS (TTBS, 0.1% Tween-20) three times (15 min, 5 min, 5 min), followed by incubation with primary antibodies of GATA-2 (dilution 1:500), GATA-3 (dilution 1:500), β-Actin (dilution 1:1000) at room temperature for 2 hours. The membrane was rinsed three times (15 min, 5 min, 5 min), then incubated at room temperature for 1 hour with Horseradish peroxidase-conjugated second antibody (1:10,000). The membrane was then incubated in ECL reagent for 1 minute. Protein was visualized using UVP image analysis system.

[2] = Body weight gain, high-fat diet-induced obesity mice and normal diet mice; assay type: in vivo, mouse
Source text: (§1) Six mice per subgroup were obtained finally.

[3] = Serum triglyceride assay in mice; assay type: in vivo, mouse
Method: as §1
Serum glucose, triglyceride, cholesterol assay: Blood samples from each mouse were collected and serum was separated by centrifugation for the measurement of levels of glucose, triglyceride and total cholesterol. Serum glucose concentrations were analyzed using Glucose (HK) Assay Kit (Sigma-aldrich, Saint Louis, Mo., USA). Serum triglyceride concentrations were analyzed using Serum Triglyceride Determination Kit (Sigma-aldrich, Saint Louis, Mo., USA). Serum cholesterol concentrations were analyzed using Amplex® Red Cholesterol Assay Kit (Invitrogen, Carlsbad, Calif., USA). All experimental assays were done according to the manufacturer's instructions.

GATA-2 [4] = assay: Immunoblot, GATA-2 protein in epididymal fat of FD mice; assay type: in vivo, mouse; details: berberine treatment
Method: RNA and protein purification and quantification from epididymal fat tissues: RNA and protein was isolated from 60 mg of epididymal fat tissues with Trizol (Invitrogen, Carlsbad, Calif., USA) following the protocol recommended by the manufacturers. RNA was dissolved in pure water and quantified at 260/280 nm, and sample integrity was checked by 1.5% agarose gel electrophoresis. Protein concentration was determined using the Micro BCA Protein Assay Kit (Fisher Scientific, Pittsburgh, Pa., USA) according to the manufacturer's instructions.
Immunoblot Analysis: Protein expression of GATA-2, GATA-3, PPARγ and C/EBPα in the control of β-actin was assessed by Western Blot. Protein samples from the same group were homogenized as previously reported (Hu and Davies, Phytomedicine (2009) 16:864-873). Protein (25 μg) was separated by polyacrylamide gel electrophoresis using the BioRad Electrophoretic System (60 V for 1 h followed by 90 V for 5 h). The proteins were then transferred to nitrocellulose membranes at 35 V overnight. […]

For `COc1ccc2cc3[n+](cc2c1OC)CCc1cc2c(cc1-3)OCO2.[Cl-]` [berberine, Berberine (Chloride Form)], the “reduction in fat droplets” value (3T3-L1 cells; 1 μM) was 30.6%, the “reduction in fat droplets” value (3T3-L1 cells; 2 μM) was 35.8% and the “reduction in fat droplets” value (3T3-L1 cells; 4 μM) was 40%. The “reduction in fat droplets” value (3T3-L1 cells; 8 μM) was 48.6%, the inhibition at 1 µM (3T3-L1 cells; Mus musculus, 3T3-L1, 192 h, 1 μM, 8 days, fully differentiated cells, read-out: inhibition of fat amount) was 59.4% and the inhibition at 2 µM (3T3-L1 cells; Mus musculus, 3T3-L1, 192 h, 2 μM, 8 days, fully differentiated cells, read-out: inhibition of fat amount) was 58.4%. For the same compound, the inhibition at 4 µM (3T3-L1 cells; Mus musculus, 3T3-L1, 192 h, 4 μM, 8 days, fully differentiated cells, read-out: inhibition of fat amount) was 71.8%, the inhibition at 8 µM (3T3-L1 cells; Mus musculus, 3T3-L1, 192 h, 8 μM, 8 days, fully differentiated cells, read-out: inhibition of fat amount) was 72.6% and the GATA-2 protein expression (GATA-2 [1]) was “increase”. It also gave a body weight gain ([2]; FD mice, 0.75 mg/kg/day i.p., 36 days (control 4.3±0.6)) of 1.5±0.7 g/mouse, a body weight gain ([2]; FD mice, 1.5 mg/kg/day i.p., 36 days) of 1.9±0.7 g/mouse and a body weight gain ([2]; FD mice, 3 mg/kg/day i.p., 36 days) of 1.4±0.5 g/mouse. The body weight gain ([2]; ND mice, 3 mg/kg/day i.p., 36 days (control 2.3±0.9)) was 2.5±0.7 g/mouse, the “reduction of serum triglyceride level vs control treated group” value (shortened to “reduction of serum triglyceride level”) ([3]; FD mice, 0.75 mg/kg/day) was 31.2% and the serum triglyceride level ([3]; FD mice, 0.75 mg/kg/day, 36 days (control 135.6±17.0)) was 93.2 ± 20.8 mg/dL. For the same compound, the “reduction of serum triglyceride level” value ([3]; FD mice, 1.5 mg/kg/day) was 25.2%, the serum triglyceride level ([3]; FD mice, 1.5 mg/kg/day, 36 days) was 101.4 ± 9.7 mg/dL and the “reduction of serum triglyceride level” value ([3]; FD mice, 3 mg/kg/day) was 37.8%. The serum triglyceride level ([3]; FD mice, 3 mg/kg/day, 36 days) was 84.3 ± 18 mg/dL, the serum triglyceride level ([3]; ND mice, 3 mg/kg/day (control 70.7±14)) was 70.7 ± 12.8 mg/dL and the “quantitative protein expression of GATA-2” value (GATA-2 [4]) was “did not appear to be significantly changed”.
